Measurements: PMC6437697 (Journal of Medicinal Chemistry, 2019)

How the values were obtained:
Test in all cases: KINOMEscan
Type in all cases: binding
Settings in all cases: read-out: % control activity remaining
[1] = molecular target: T1, FYN (Homo sapiens, UniProt P06241)
T1 construct: purchased Eurofins DiscoverX KINOMEscan

[2] = molecular target: T2, RSK3(Kin.Dom.2-C-terminal) (Homo sapiens, UniProt Q15349)
T2 construct: RSK3(Kin.Dom.2-C-terminal); purchased Eurofins DiscoverX KINOMEscan

[3] = molecular target: T3, GRK7 (Homo sapiens, UniProt Q8WTQ7)
T3 construct: purchased Eurofins DiscoverX KINOMEscan
T3 sequence (Q8WTQ7 1-553): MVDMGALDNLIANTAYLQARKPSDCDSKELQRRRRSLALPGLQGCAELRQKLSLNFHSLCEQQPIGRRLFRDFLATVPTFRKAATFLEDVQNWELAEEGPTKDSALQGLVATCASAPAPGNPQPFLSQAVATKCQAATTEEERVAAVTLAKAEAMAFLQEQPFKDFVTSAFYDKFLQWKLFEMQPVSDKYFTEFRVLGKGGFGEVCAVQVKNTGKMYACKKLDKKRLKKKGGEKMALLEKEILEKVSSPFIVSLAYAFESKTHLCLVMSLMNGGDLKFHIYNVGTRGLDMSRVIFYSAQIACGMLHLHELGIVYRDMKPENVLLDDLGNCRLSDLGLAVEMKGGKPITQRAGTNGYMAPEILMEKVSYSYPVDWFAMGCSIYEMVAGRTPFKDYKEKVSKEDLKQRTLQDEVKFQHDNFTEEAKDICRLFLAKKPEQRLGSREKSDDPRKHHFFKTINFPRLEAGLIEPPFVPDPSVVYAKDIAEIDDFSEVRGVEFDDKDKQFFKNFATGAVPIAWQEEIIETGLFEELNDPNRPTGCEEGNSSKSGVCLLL

[4] = molecular target: T4, HPK1 (Homo sapiens, UniProt Q92918)
T4 construct: purchased Eurofins DiscoverX KINOMEscan

[5] = molecular target: T5, ABL1(H396P)-phosphorylated (Homo sapiens, UniProt P00519, H396P)
T5 construct: purchased Eurofins DiscoverX KINOMEscan

[6] = molecular target: T6, MYLK (Homo sapiens, UniProt Q15746)
T6 construct: purchased Eurofins DiscoverX KINOMEscan

[7] = molecular target: T7, CLK2 (Homo sapiens, UniProt P49760)
T7 construct: purchased Eurofins DiscoverX KINOMEscan

[8] = molecular target: T8, AMPK-alpha2 (Homo sapiens, UniProt P54646)
T8 construct: purchased Eurofins DiscoverX KINOMEscan

[9] = molecular target: T9, ERBB4 (Homo sapiens, UniProt Q15303)
T9 construct: purchased Eurofins DiscoverX KINOMEscan

[10] = molecular target: T10, STK39 (Homo sapiens, UniProt Q9UEW8)
T10 construct: purchased Eurofins DiscoverX KINOMEscan

[11] = molecular target: T11, CDK9 (Homo sapiens, UniProt P50750)
T11 construct: purchased Eurofins DiscoverX KINOMEscan

[12] = molecular target: T12, PKN2 (Homo sapiens, UniProt Q16513)
T12 construct: purchased Eurofins DiscoverX KINOMEscan

[13] = molecular target: T13, CDK4-cyclinD3 (Homo sapiens, UniProt P11802)
T13 construct: purchased Eurofins DiscoverX KINOMEscan

[14] = molecular target: T14, TAK1 (Homo sapiens, UniProt O43318)
T14 construct: purchased Eurofins DiscoverX KINOMEscan
T14 sequence (O43318 1-606): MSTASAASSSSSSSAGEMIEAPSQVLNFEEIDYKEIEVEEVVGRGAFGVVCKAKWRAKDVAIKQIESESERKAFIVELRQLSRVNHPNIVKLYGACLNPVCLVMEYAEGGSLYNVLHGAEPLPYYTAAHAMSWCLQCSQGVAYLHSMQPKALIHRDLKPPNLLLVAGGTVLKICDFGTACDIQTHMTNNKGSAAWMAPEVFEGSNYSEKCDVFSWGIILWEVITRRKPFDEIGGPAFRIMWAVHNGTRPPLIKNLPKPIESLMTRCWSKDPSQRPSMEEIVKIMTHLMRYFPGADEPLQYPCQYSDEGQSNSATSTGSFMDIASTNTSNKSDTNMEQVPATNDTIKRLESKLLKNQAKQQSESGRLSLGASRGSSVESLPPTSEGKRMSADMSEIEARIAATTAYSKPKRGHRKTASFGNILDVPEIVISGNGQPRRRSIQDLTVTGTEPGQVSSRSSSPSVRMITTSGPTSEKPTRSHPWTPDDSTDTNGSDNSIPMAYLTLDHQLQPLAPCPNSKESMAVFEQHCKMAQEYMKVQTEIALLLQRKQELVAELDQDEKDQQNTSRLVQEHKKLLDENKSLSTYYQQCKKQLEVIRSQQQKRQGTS

[15] = molecular target: T15, TEC (Homo sapiens, UniProt P42680)
T15 construct: purchased Eurofins DiscoverX KINOMEscan
T15 sequence (P42680 1-631): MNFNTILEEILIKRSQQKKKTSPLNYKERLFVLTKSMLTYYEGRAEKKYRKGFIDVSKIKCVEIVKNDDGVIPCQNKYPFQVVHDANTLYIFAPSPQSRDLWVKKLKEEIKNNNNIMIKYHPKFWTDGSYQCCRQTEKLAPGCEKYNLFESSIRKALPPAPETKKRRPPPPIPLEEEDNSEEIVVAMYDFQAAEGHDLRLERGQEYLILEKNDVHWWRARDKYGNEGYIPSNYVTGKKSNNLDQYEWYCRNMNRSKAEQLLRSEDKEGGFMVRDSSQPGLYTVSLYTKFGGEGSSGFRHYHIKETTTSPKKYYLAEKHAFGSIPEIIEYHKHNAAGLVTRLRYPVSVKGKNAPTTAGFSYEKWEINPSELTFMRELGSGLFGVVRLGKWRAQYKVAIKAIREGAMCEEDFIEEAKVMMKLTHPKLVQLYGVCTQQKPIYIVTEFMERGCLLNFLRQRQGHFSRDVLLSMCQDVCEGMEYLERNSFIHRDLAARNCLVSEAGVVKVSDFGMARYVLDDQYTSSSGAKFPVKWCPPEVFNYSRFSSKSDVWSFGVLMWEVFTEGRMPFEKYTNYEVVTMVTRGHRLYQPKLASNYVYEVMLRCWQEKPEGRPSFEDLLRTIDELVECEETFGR

T2 sequence (Q15349 415-672 limits assumed): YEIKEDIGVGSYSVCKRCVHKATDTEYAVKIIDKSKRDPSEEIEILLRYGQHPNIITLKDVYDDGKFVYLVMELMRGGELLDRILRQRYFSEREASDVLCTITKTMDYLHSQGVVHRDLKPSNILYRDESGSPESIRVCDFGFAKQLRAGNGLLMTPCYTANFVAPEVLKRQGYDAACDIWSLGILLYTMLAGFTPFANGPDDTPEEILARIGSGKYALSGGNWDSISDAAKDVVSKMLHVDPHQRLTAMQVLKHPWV
T4 sequence (Q92918 whole entry): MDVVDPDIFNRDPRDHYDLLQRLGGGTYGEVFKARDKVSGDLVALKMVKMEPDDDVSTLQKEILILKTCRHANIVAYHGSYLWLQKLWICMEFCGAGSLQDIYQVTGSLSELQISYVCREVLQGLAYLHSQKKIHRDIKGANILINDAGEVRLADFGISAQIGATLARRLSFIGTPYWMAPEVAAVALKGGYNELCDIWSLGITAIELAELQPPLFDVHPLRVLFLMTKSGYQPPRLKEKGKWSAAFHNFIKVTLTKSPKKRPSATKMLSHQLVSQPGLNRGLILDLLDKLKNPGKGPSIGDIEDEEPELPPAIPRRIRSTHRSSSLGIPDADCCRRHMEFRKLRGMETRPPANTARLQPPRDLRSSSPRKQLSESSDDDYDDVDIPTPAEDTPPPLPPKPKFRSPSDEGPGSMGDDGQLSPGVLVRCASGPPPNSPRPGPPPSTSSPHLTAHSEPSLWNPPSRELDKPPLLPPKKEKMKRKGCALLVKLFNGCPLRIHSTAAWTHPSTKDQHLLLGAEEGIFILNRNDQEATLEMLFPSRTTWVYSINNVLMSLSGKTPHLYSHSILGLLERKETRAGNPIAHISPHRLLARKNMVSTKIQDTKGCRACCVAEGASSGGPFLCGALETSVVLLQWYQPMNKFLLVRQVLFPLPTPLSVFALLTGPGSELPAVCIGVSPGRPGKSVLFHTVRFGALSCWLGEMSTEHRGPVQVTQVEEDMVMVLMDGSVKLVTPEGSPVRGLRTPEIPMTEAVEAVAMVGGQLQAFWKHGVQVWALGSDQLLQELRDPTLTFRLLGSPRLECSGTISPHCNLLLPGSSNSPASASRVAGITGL
T12 sequence (Q16513 whole entry): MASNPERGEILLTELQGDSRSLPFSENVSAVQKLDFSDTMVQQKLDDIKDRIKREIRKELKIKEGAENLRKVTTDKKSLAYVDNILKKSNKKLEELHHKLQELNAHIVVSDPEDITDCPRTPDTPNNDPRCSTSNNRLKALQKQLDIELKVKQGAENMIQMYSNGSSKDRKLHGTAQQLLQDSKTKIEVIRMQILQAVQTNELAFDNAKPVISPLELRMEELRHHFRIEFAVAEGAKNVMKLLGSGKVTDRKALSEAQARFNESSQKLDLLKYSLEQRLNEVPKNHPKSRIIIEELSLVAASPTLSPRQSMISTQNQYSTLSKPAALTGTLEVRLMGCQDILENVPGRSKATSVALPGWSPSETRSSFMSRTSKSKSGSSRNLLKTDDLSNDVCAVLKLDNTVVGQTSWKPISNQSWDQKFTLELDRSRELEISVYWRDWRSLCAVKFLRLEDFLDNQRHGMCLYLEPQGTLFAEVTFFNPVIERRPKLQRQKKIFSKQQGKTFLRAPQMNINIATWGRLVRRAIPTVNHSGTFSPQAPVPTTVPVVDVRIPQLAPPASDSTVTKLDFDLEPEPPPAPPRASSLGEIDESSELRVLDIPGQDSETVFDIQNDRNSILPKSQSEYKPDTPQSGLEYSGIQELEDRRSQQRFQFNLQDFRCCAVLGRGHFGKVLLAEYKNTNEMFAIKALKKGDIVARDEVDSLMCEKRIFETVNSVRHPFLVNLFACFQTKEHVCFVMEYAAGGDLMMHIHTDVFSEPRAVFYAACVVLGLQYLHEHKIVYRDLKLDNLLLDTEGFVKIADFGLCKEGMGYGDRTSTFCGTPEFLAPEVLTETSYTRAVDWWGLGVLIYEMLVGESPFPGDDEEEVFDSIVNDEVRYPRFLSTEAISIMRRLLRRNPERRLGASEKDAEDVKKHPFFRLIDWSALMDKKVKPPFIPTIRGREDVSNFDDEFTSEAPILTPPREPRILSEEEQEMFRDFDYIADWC
T7 sequence (P49760 whole entry): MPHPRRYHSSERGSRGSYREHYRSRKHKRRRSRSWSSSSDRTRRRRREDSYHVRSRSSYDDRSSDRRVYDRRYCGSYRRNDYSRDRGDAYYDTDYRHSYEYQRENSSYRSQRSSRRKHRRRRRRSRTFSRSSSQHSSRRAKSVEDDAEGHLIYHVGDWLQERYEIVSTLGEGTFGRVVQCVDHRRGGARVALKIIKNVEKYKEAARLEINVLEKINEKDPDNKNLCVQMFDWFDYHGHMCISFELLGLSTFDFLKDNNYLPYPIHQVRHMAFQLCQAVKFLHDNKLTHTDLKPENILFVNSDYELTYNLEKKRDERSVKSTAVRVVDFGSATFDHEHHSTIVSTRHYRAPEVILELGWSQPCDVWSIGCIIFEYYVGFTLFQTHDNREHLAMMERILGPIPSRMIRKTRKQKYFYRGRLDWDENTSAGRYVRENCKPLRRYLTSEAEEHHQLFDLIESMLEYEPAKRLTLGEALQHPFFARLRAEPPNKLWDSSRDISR
T8 sequence (P54646 whole entry): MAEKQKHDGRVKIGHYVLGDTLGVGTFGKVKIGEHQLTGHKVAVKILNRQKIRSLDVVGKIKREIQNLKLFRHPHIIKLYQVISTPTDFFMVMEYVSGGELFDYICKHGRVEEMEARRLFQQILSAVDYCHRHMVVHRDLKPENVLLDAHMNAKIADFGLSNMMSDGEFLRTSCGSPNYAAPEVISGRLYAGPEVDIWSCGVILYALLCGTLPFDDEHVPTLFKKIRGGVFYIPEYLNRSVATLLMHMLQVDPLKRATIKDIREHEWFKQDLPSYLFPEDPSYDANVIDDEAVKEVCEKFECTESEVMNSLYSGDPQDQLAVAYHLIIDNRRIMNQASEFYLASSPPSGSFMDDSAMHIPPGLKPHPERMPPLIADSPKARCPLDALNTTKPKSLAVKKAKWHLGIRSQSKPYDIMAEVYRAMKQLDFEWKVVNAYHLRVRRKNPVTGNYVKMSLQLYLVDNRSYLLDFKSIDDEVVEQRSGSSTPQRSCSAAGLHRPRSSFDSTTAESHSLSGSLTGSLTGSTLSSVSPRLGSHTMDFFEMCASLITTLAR
T6 sequence (Q15746 whole entry): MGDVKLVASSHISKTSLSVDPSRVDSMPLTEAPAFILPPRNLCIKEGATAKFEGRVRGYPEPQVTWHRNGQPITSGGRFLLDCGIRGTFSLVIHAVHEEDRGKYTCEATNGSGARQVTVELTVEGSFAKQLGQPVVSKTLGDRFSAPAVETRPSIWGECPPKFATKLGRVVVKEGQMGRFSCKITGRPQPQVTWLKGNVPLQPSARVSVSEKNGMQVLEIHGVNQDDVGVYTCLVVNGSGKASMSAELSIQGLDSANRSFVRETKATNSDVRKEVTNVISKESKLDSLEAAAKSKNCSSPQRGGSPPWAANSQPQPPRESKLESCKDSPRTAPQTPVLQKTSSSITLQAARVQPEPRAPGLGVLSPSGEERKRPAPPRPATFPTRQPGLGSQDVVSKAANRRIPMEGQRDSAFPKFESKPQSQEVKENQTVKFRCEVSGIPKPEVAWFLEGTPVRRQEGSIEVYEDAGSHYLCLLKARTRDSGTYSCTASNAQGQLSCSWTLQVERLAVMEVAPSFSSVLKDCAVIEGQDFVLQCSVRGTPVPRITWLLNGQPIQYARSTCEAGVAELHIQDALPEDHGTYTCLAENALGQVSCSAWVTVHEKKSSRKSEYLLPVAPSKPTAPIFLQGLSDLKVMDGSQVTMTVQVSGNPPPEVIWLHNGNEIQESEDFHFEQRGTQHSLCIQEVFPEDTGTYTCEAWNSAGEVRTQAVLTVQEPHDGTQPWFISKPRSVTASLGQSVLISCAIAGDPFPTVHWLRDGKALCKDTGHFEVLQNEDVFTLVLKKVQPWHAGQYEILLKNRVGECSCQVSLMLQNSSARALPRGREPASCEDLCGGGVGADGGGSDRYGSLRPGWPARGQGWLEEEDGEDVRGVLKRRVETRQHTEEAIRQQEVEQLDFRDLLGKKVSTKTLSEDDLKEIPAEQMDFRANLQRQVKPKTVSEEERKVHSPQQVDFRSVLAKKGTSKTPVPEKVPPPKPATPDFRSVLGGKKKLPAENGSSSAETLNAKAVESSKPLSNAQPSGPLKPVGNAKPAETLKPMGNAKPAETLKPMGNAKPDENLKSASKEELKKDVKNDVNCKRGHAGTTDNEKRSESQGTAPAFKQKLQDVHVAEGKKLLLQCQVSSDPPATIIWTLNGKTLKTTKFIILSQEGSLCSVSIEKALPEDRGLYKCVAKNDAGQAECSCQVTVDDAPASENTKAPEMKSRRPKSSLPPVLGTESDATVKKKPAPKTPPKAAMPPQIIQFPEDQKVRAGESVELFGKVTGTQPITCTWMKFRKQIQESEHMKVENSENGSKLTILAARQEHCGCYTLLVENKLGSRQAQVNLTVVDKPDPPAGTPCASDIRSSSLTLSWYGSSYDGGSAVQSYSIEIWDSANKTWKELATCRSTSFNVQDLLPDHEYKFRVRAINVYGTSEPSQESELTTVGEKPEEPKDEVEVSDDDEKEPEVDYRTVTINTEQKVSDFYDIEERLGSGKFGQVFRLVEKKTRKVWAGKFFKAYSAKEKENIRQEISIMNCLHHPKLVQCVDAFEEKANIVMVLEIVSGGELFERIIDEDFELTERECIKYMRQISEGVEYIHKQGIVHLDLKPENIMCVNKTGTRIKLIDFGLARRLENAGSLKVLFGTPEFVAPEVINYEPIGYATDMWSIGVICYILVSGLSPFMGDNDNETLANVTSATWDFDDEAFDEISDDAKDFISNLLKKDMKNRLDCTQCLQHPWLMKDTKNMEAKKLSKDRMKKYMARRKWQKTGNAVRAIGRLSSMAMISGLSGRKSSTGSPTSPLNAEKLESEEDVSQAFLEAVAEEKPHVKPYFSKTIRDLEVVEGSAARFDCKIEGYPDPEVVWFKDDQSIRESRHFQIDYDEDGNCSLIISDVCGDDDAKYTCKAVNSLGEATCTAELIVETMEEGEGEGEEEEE

| SMILES | remaining binding at 1 µM [1] [%] | remaining binding at 1 µM [2] [%] | remaining binding at 1 µM [3] [%] | remaining binding at 1 µM [4] [%] | remaining binding at 1 µM [5] [%] | remaining binding at 1 µM [6] [%] | remaining binding at 1 µM [7] [%] | remaining binding at 1 µM [8] [%] | remaining binding at 1 µM [9] [%] | remaining binding at 1 µM [10] [%] | remaining binding at 1 µM [11] [%] | remaining binding at 1 µM [12] [%] | remaining binding at 1 µM [13] [%] | remaining binding at 1 µM [14] [%] | remaining binding at 1 µM [15] [%] |
| --- | --- | --- | --- | --- | --- | --- | --- | --- | --- | --- | --- | --- | --- | --- | --- |
| Clc1cc(NCC2CC2)c2ncc(-c3ccc4[nH]ncc4c3)n2n1 [compound 2, 6-Chloro-N-(cyclopropylmethyl)-3-(1H-indazol-5-yl)imidazo[1,2-b]pyridazin-8-amine] | 95 | 100 | 97 | 75 | 73 | 79 | 9.6 | 94 | 99 | 88 | 98 | 100 | 78 | 91 | 100 |
| O=C(CN1CCOCC1)N[C@H]1CC[C@H](Nc2cc(Cl)nn3c(-c4ccc5[nH]ncc5c4)cnc23)CC1 [compound 26] | 96 | 94 | 63 | 88 | 46 | 42 | 4.2 | 92 | 100 | 89 | 43 | 100 | 100 | 47 | 97 |
| CN1CCC(CNc2cc(Cl)nn3c(-c4cc5nc(Nc6ccccc6)[nH]c5cc4F)cnc23)CC1 [compound 31, 6-Chloro-3-(6-fluoro-2-(phenylamino)-1H-benzo[d]imidazol-5-yl)-N-((1-methylpiperidin-4-yl)methyl)imidazo[1,2-b]pyridazin-8-amine] | 98 | 80 | 77 | 97 | 67 | 81 | 79 | 99 | 100 | 98 | 95 | 98 | 97 | 65 | 88 |
